# Data from US3970648A, “2-[2-(5-Nitro-2-furyl)vinyl]-4-(anilino)quinazolines” (Diamond Shamrock Corporation, priority 1974, dated 1976).
# Tests used:
# [1] = Growth promotion in chicks, Example XI (Table V); type: in vivo, broiler cross chicks; conditions: for feed efficiency (in words) / growth rate (in words): 25 g/T; for Average 4 Week Performance: Feed Efficiency / Average 4 Week Performance: Gain / Improved Response Over Basal Ration: Feed Efficiency / Improved Response Over Basal Ration: Gain: 4 weeks
# Description: (§1) This example compares growth promotion activity of the product of Example I with other growth promotants at a concentration of 25 g/T in the Basal Ration described in Example VII. The other growth promotants include the product described in Example I of U.S. Pat. No. 3,542,784 -- Burch and quinoxaline-1,4-dioxide. Day old broiler cross chicks were weight equalized into groups of eight chicks each, and four replicates of eight chicks each were fed the experimental rations over a 4 week period.
# The growth promotion tests described in Example X were repeated with the exception that five replicates of eight chicks each were fed the formulations described in Table V for 4 weeks.
# [2] = Growth promotion in chicks at low feed levels, Example VIII (Table II); type: in vivo, broiler cross chicks; conditions: for Average 4 Week Performance: Feed Efficiency / Average 4 Week Performance: Gain / Improved Response Over Basal Ration: Feed Efficiency / Improved Response Over Basal Ration: Gain: 10 g/T in basal ration, 4 weeks
# Description: Day old broiler cross chicks were weight equalized into groups of eight chicks each and were placed in battery brooders. The 32 chick treatment groups (four replicates) were fed one of the five rations described below for a 4 week period. Weekly measurements of body weights and feed consumption were made by replicate, and these measurements used to calculate weight gain and feed efficiency.
# The basal ration was the basal ration used in Example VII above. The remaining five rations were obtained by mixing the indicated quantities of bacitracin (4 g/T), chlortetracycline (10 g/T), product of Example I (10 g/T), and product of Example III of U.S. Pat. No. 3,542,784 -- Burch (10 g/T) as growth promotants with the basal ration.
# [3] = Growth promotion and feed efficiency in chicks, Example VII (Table I); type: in vivo, broiler cross chicks; conditions: for Average 4 Week Performance: Feed Efficiency / Average 4 Week Performance: Gain / Improved Response Over Basal Ration + Bacitracin: Feed Efficiency / Improved Response Over Basal Ration + Bacitracin: Gain: 200 g/T in basal ration + bacitracin (4 g/T), 4 weeks; for significance of improved feed efficiencies (level of probability) / significance of improved weight gains (level of probability): 200 g/T, analysis of variance
# Description: One hundred 20 day-old broiler cross chicks were weight equalized into 15 groups of eight chicks each and placed in battery brooders. The 40 chick treatment groups (five replicates) were fed the one of the three rations described below for a 4 week period. Weekly measurements of body weights and feed consumption were made by replicate, and these measurements used to calculate weight gain and feed efficiency.
# The commercial type broiler starter basal ration which was used in this study was designated as the Basal Ration, and had the following composition:
# The preceding basal ration was mixed with bacitracin at a level of 4 g/T as the only growth stimulant to simulate commercial practice. This mixture was designated as the Basal Ration + Bacitracin (4 g/T) and constituted the negative control in this study.
# A second ration was prepared by fortifying the Basal Ration + bacitracin described above with the Product from Example I above at a level of 200 g/T, and was designated as Basal Ration + Bacitracin + Product of Example I (200 g/T). A third ration was prepared by fortifying the Basal Ration + bacitracin described above with chlortetracycline (CTC) at a level of 200 g/T, and was designated as Basal Ration + Bacitracin + Chlortetracycline (200 g/T). Chlortetracycline served as the positive control in this test because it had shown strong growth promotion in numerous previous tests at this therapeutic level.
# The commercial value of the product of Example I is indicated by the fact that these significant responses were obtained in addition to the growth stimulation provided by the presence of bacitracin in the ration. It is important to note that the negative controls in this example and in Examples VIII and X which follow were characterized by rapid rates of growth. This high plane of growth and feed efficiency performance on the part of the negative controls makes the responses to the test compounds all the more meaningful.
# The term "growth promotion" is used herein to describe the beneficial effect of a compound in eliciting a more rapid rate of weight gain when compared to the weight gain of control animals not fed the compound. "Feed efficiency" is a term regularly used in animal husbandry and is a measure of the pounds of feed required to produce a pound of gain in the weight of the animal. A lower mathmatical value for feed efficiency reflects improved performance. […] In this case, as in the case of the weight gain (fifth column), an improved performance is indicated by a higher positive number.
# [4] = Growth promotion in chicks, Example XII repeat (Table VII); type: in vivo, broiler cross chicks; conditions: for Average 4 Week Performance: Feed Efficiency / Average 4 Week Performance: Gain / Improved Response Over Basal Ration: Feed Efficiency / Improved Response Over Basal Ration: Gain: 25 g/T in basal ration, 4 weeks
# Description: as §1
# The growth promotion tests described in Example X were repeated with the additional testing the products of Examples II and III.
# [5] = Growth promotion in chicks at 25 g/T, Example X (Table IV); type: in vivo, broiler cross chicks; conditions: 25 g/T
# Description: as §1
# [6] = Growth promotion in chicks, Example XII first set (Table VI); type: in vivo, broiler cross chicks; conditions: for Average 4 Week Performance: Feed Efficiency / Average 4 Week Performance: Gain / Improved Response Over Basal Ration: Feed Efficiency / Improved Response Over Basal Ration: Gain: 25 g/T in basal ration, 4 weeks; for growth rate / feed efficiency, production parameters (in words): 25 g/T, first set of tests
# Description: This example compares growth promotion activity of the product of Example I with other growth promotants at a concentration of 25 g/T in the Basal Ration described in Example VII. The other growth promotants include the product described in Example I of U.S. Pat. No. 3,542,784 -- Burch and quinoxaline-1,4-dioxide. Day old broiler cross chicks were weight equalized into groups of eight chicks each, and four replicates of eight chicks each were fed the experimental rations over a 4 week period. […]
# [7] = Growth rate and feed efficiency in swine, Example XIII (Table VIII); type: in vivo, weanling pigs; conditions: 25 g/T
# Description: Thirty-six weanling pigs weighing approximately 30 pounds each in good physical condition and originating from a common source were used in these tests. The pigs were allocated into sex and weight equalized pens of six pigs each. A 1 week period was allowed for acclimatization before testing. Three replicates of six pigs were fed the basal ration described below, and three replicates were fed the same basal ration supplemented with 25 g/T of the product of Example I.
# The basal ration was a 17% commercial corn-soya pelletized formulation which was free of antibiotic and drug components. Composition of the basal ration formulation was: […]
# The rations were offered ad libitum from six bushel self-feeders with a continuous supply of fresh water. The same ration formulations were used throughout the 6 week feeding period. Individual pig weighing were made after 0, 2, 4 and 6 (termination) week periods. Feed consumption records were kept on a pen basis, with feed efficiency conversion being compiled at the end of the second, fourth and sixth (termination) week of feeding. Complete morbidity and mortality records were kept.
# [8] = 25 g/T combined with bacitracin 25 g/T
# [9] = 6 weeks, mean of three replicates
smiles,measurement,setting,value
"CN(C)[C@@H]1C(O)=C(C(N)=O)C(=O)[C@@]2(O)C(O)=C3C(=O)c4c(O)ccc(Cl)c4[C@@](C)(O)[C@H]3C[C@@H]12 [Chlortetracycline, reference compound]",feed efficiency (in words),[1],moderate improvements in feed efficiencies
same,growth rate (in words),[1],slight improvements in growth rates
same,Average 4 Week Performance: Feed Efficiency,[1]; 25 g/T in basal ration,1.717
same,Average 4 Week Performance: Gain,[1]; 25 g/T in basal ration,752.5 g
same,Improved Response Over Basal Ration: Feed Efficiency,[1]; 25 g/T in basal ration,+4.7%
same,Improved Response Over Basal Ration: Gain,[1]; 25 g/T in basal ration,+2.7%
same,Average 4 Week Performance: Feed Efficiency,[2],1.745
same,Average 4 Week Performance: Gain,[2],714.2 g
same,Improved Response Over Basal Ration: Feed Efficiency,[2],+0.9%
same,Improved Response Over Basal Ration: Gain,[2],-0.9%
same,Average 4 Week Performance: Feed Efficiency,[3],1.607
same,Average 4 Week Performance: Gain,[3],732.4 gms
same,Improved Response Over Basal Ration + Bacitracin: Feed Efficiency,[3],+6.6%
same,Improved Response Over Basal Ration + Bacitracin: Gain,[3],+5.5%
same,significance of improved feed efficiencies (level of probability),[3],99.9%
same,significance of improved weight gains (level of probability),[3],99.5%
"O=[N+]([O-])c1ccc(C=Cc2nc(Nc3ccc(O)cc3)c3ccccc3n2)o1 [Example I, 2-[2-(5-nitro-2-furyl)vinyl]-4-(p-hydroxyanilino)quinazoline]",feed efficiency (in words),[1],substantial improvement in feed efficiency
same,growth rate (in words),[1],moderate improvement in growth rate
same,combination effect (in words),[1]; [8],synergistic effects
same,Average 4 Week Performance: Feed Efficiency,[1]; [8],1.666
same,Average 4 Week Performance: Gain,[1]; [8],766.4 g
same,Improved Response Over Basal Ration: Feed Efficiency,[1]; [8],+7.5%
same,Improved Response Over Basal Ration: Gain,[1]; [8],+4.6%
same,Average 4 Week Performance: Feed Efficiency,[1]; 25 g/T in basal ration,1.677
same,Average 4 Week Performance: Gain,[1]; 25 g/T in basal ration,756.1 g
same,Improved Response Over Basal Ration: Feed Efficiency,[1]; 25 g/T in basal ration,+6.9%
same,Improved Response Over Basal Ration: Gain,[1]; 25 g/T in basal ration,+3.2%
same,Average 4 Week Performance: Feed Efficiency,[4],1.706
same,Average 4 Week Performance: Gain,[4],695.3 g
same,Improved Response Over Basal Ration: Feed Efficiency,[4],+4.4%
same,Improved Response Over Basal Ration: Gain,[4],+1.9%
same,"growth rate / feed efficiency, production parameters (in words)","[4]; 25 g/T, second set of tests",moderate improvements in production parameters
same,effect on feed efficiency (in words),[5],strongest response in growth rate and feed efficiency
same,growth response (in words),[5],strongest response in growth rate and feed efficiency
same,Average 4 Week Performance: Feed Efficiency,[6],1.623
same,Average 4 Week Performance: Gain,[6],762.1 g
same,Improved Response Over Basal Ration: Feed Efficiency,[6],+0.7%
same,Improved Response Over Basal Ration: Gain,[6],+2.4%
same,"growth rate / feed efficiency, production parameters (in words)",[6],moderate improvements in production parameters
same,Average 4 Week Performance: Feed Efficiency,[2],1.671
same,Average 4 Week Performance: Gain,[2],750.7 g
same,Improved Response Over Basal Ration: Feed Efficiency,[2],+5.1%
same,Improved Response Over Basal Ration: Gain,[2],+4.2%
same,growth promotion (in words),"[2]; 10 g/T, compared with other growth promotants of the test",greater growth promotion than any of the other growth promotants used in this test
same,Average 4 Week Performance: Feed Efficiency,[3],1.597
same,Average 4 Week Performance: Gain,[3],739.8 gms
same,Improved Response Over Basal Ration + Bacitracin: Feed Efficiency,[3],+7.2%
same,Improved Response Over Basal Ration + Bacitracin: Gain,[3],+6.5%
same,significance of improved feed efficiencies (level of probability),[3],99.9%
same,significance of improved weight gains (level of probability),[3],99.5%
same,Improved Response Over Basal Ration: Feed Efficiency,[7]; 6 weeks,+2.4%
same,Improved Response Over Basal Ration: Gain,[7]; 6 weeks,+9.9%
same,feed efficiency (in words),[7]; 6 weeks,enhanced feed efficiency
same,growth improvement (in words),[7]; 6 weeks,very substantial growth improvement
same,Avg. Daily Gain,[7]; [9],1.537
same,Feed/lb. Gain,[7]; [9],2.507
same,Avg. Daily Gain,"[7]; 6 weeks, replicate a",1.567
same,Feed/lb. Gain,"[7]; 6 weeks, replicate a",2.722
same,Avg. Daily Gain,"[7]; 6 weeks, replicate b",1.567
same,Feed/lb. Gain,"[7]; 6 weeks, replicate b",2.392
same,Avg. Daily Gain,"[7]; 6 weeks, replicate c",1.476
same,Feed/lb. Gain,"[7]; 6 weeks, replicate c",2.406
same,Avg. 6 Wk. Wt. Per Pig,[7]; replicate a,97.8
same,Avg. 6 Wk. Wt. Per Pig,[7]; replicate b,97.6
same,Avg. 6 Wk. Wt. Per Pig,[7]; replicate c,93.7
"O=[N+]([O-])c1ccc(C=Cc2nc(Nc3cccc(O)c3)c3ccccc3n2)o1 [Example II, 2-[2-(5-nitro-2-furyl)vinyl]-4-(m-hydroxyanilino)quinazoline]",Average 4 Week Performance: Feed Efficiency,[4],1.672
same,Average 4 Week Performance: Gain,[4],696.4 g
same,Improved Response Over Basal Ration: Feed Efficiency,[4],+6.3%
same,Improved Response Over Basal Ration: Gain,[4],+2.0%
same,Average 4 Week Performance: Feed Efficiency,[6],1.580
same,Average 4 Week Performance: Gain,[6],773.0 g
same,Improved Response Over Basal Ration: Feed Efficiency,[6],+3.3%
same,Improved Response Over Basal Ration: Gain,[6],+3.9%
same,"growth rate / feed efficiency, production parameters (in words)",[6],moderate improvements
